Active and inactive are the calls of the source.
Legend:
[1] = target: T1, Polyadenylate-binding protein 1 (Homo sapiens, UniProt P11940); assay: MLLE binding blockers, Cy5 peptide tracer – biochemical, fluorescence polarization, Cy5-PAM2 peptide, secondary, miRNA deadenylation inhibitor project, dose response (AID 602260); assay type: functional; conditions: read-out: IC50_Mean
[2] = target: T1, Polyadenylate-binding protein 1; assay: MLLE domain peptide-binding blockers, IC50 – biochemical, fluorescence polarization, FITC-PAM2 peptide, dose response (AID 602259); assay type: functional; conditions: read-out: IC50_Mean
Fatty acid synthase [3] = target: T2, Fatty acid synthase (Homo sapiens, UniProt P49327); assay: inhibition of human FAS-TE enzyme activity – biochemical, endpoint fluorescence intensity, uHTS hits, dose response (AID 624327); assay type: functional;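 also: fluorescence from hydrolysis of an O-methyl fluorescein acyl ester substrate by the enzyme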
Fatty acid synthase [4] = target: T2, Fatty acid synthase; assay: inhibition of human FAS-TE enzyme activity – biochemical, kinetic fluorescence intensity, dose response (AID 624326); assay type: functional;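 also: rate of fluorescence rise from hydrolysis of a fluorogenic O-methyl fluorescein ester substrate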
[5] = Luminescence Cell-Based Dose Response HTS to Identify Activators of Luciferase Translation or Activity in H4 […] Cells. [Related pubchem assays: 1829 (Project Summary), 1814 (Primary HTS)]; assay type: functional
H4 = assay: Luminescence Cell-Based Dose Response HTS to Identify Activators of 5'UTR Stem-Loop Driven Prion Protein mRNA Translation in H4 Neuroglioblastoma Cells. [Related pubchem assays: 1829 (Project Summary), 1814 (Primary HTS)]; assay type: functional; conditions: Homo sapiens
[6] = Luminescence Cell-Based Dose Confirmation HTS to Identify Activators of 5'UTR Stem-Loop Driven Alpha-Synuclein mRNA Translation in H4 Neuroglioblastoma Cells. [Related pubchem assays: 1829 (Project Summary), 1814 (Primary HTS)]; assay type: functional
[7] = loss of viability in HepG2 cells – cell-based, CellTiter-Glo, cherry-picked, cytotoxicity control for Shn3 inhibitor project, dose response (AID 624134); assay type: functional
[8] = non-specific 3'UTR reporter inhibition in Clone20-Shn3RL – cell-based, Renilla luciferase, cherry-picked, counter-screen for Shn3 inhibitor project, dose response (AID 624133); assay type: functional
[9] = reduction of Shn3 3'UTR-driven luciferase in osteoblasts – cell-based, Clone20 osteoblasts, firefly luciferase, cherry-picked, dose response (AID 624132); assay type: functional;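 also: firefly luciferase luminescence from reporter carrying the Shn3 3'UTR in osteoblasts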
[10] = NIH-3T3 fibroblast cytotoxicity, dose response, cytotoxicity control, cell-based, fluorescence, Alamar Blue, secondary assay (AID 2327); assay type: functional;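 also: NIH-3T3 mouse fibroblasts cultured with fluconazole at 8 µg/mL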
cells [11] = assay type: functional, cell-based
cells [12] = assay type: functional, cell-based; remark: listed apart in the source
[13] = fluconazole-exposed Candida albicans growth modulators – fluorescence, retest, confirmation (AID 2467); assay type: functional, cell-based

T1 sequence (P11940 whole entry, the tested form may be a part): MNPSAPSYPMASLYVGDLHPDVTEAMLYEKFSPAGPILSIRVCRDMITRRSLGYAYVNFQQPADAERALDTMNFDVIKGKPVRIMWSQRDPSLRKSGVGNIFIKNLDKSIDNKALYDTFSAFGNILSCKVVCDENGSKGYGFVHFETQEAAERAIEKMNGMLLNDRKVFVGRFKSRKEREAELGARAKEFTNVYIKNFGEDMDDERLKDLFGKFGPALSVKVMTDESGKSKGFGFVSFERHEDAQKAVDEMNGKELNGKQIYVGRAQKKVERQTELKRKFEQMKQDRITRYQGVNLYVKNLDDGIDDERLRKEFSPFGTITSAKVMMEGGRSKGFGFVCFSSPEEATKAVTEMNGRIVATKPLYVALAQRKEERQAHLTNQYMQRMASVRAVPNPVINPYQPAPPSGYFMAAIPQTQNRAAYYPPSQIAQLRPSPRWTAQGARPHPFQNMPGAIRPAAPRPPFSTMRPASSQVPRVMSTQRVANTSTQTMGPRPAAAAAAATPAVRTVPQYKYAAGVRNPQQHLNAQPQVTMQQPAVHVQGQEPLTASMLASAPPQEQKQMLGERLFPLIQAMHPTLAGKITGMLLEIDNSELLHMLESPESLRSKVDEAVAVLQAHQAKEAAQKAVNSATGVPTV
T2 sequence (P49327 whole entry): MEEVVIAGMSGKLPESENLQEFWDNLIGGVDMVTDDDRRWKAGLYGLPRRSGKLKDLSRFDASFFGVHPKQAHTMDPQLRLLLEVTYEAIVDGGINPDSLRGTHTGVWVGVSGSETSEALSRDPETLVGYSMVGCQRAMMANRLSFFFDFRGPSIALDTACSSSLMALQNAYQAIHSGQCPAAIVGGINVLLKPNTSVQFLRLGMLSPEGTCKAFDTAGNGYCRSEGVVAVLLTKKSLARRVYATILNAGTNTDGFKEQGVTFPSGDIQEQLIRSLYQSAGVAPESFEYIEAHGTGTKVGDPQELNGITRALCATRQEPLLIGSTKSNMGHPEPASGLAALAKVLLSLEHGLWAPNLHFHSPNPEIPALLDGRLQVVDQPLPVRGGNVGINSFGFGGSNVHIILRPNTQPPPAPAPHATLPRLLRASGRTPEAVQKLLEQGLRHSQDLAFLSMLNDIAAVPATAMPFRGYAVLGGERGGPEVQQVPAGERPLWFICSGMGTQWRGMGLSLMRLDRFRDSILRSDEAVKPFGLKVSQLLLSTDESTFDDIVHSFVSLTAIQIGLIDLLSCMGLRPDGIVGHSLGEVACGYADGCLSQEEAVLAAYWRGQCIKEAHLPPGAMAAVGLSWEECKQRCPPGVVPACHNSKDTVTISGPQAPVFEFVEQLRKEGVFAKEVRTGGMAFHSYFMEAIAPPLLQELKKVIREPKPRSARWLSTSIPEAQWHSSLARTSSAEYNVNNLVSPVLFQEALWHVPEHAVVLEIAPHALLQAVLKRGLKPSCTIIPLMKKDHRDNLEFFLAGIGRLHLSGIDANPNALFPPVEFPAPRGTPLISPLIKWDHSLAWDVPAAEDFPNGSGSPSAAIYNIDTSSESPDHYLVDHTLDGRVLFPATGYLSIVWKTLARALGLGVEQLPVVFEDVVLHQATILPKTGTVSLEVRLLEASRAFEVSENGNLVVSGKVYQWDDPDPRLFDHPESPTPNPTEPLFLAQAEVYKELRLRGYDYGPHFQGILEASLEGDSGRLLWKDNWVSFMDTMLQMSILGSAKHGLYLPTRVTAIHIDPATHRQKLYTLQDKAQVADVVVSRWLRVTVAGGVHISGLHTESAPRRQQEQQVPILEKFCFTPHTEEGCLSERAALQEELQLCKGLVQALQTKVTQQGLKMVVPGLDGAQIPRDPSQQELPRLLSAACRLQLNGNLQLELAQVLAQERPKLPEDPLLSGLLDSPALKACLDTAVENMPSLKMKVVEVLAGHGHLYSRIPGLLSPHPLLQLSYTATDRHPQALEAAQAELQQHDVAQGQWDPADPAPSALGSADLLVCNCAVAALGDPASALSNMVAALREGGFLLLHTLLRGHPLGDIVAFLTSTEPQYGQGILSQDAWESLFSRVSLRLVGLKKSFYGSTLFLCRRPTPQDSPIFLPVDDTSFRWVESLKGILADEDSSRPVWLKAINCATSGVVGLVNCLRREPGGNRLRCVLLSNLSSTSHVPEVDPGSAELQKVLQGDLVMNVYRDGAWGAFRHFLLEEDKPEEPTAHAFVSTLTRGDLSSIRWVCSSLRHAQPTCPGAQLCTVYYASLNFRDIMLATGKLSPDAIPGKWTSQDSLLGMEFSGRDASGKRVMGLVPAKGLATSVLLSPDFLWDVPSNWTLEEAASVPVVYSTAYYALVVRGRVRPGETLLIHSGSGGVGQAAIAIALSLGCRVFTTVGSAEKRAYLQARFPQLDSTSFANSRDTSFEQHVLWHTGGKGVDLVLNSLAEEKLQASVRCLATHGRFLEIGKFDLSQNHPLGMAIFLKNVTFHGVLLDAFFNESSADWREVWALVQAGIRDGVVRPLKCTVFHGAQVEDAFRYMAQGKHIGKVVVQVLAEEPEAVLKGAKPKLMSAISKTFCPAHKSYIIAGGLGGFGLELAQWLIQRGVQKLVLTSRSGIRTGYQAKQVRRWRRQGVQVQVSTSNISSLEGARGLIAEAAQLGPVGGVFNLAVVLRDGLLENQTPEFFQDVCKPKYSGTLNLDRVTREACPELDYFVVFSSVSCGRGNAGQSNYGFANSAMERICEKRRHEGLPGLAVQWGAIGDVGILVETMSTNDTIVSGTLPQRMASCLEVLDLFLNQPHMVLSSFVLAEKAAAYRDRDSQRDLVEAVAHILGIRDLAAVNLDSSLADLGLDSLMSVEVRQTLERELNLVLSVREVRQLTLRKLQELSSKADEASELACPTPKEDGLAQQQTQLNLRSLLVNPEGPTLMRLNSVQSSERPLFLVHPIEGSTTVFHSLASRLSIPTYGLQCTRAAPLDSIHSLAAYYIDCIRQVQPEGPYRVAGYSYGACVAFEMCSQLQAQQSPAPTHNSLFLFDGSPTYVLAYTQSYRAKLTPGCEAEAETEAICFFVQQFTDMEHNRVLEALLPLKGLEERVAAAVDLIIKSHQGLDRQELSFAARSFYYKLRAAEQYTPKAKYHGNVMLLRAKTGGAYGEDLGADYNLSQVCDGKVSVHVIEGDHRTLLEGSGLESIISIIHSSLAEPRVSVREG

For `NS(=O)(=O)c1ccc(NC(=S)NC(=O)c2ccc(-c3ccccc3)cc2)cc1`, which IC50 [1] is on record?
Its IC50 is > 66 µM (inactive).

What about the IC50 [2] of the same compound?
Its IC50 is > 66 µM (inactive).

For `Cc1ccc(CN(CC(=O)NC2CCCC2)C(=O)CSc2nnc(COc3ccccc3)o2)cc1`, which IC50 [1] is on record?
The IC50 was > 66 µM (inactive).

And the IC50 [2]?
The IC50 was > 66 µM (inactive).

Which results are given for `O=C(COc1ncnc2ccccc12)Nc1ccc(Cl)c([N+](=O)[O-])c1`?
IC50 (Fatty acid synthase [3]): 8.42 µM (active); IC50 (Fatty acid synthase [4]): 6.52 µM (active)

Which results are given for `C1=C(CCNc2[nH]cnc3ncnc2-3)CCCC1`?
EC50 [5]: 20 µM (active); EC50 (H4): 40 µM (active); EC50 [6]: 52.3 µM (active)

Which IC50 [1] does the source give for `Cc1ccc2c(c1)sc(C)[n+]2CCCS(=O)(=O)[O-]` here?
Its IC50 is > 66 µM (inactive).

And the IC50 [2]?
Its IC50 is > 66 µM (inactive).

Which IC50 (Fatty acid synthase [3]) does the source give for `NC(=NOC(=O)CCC1CCCC1)c1cccc([N+](=O)[O-])c1` here?
The IC50 was 7.47 µM (active).

What about the IC50 (Fatty acid synthase [4]) of the same compound?
Its IC50 is 4.54 µM (active).

With `CCCCNC(=O)CN1C(=O)c2cccc(N)c2C1=O` as the compound, how does the IC50 [1] read?
Its IC50 is > 66 µM (inactive).

What about the IC50 [2] of the same compound?
Its IC50 is 31.6 µM (inactive).

For `C=C(C)CSc1ncc(-c2cccc(C(F)(F)F)c2)cn1`, which IC50 (Fatty acid synthase [3]) is on record?
The IC50 was 13.3 µM (active).

What about the IC50 (Fatty acid synthase [4]) of the same compound?
The IC50 was 6.31 µM (active).

With `CCN(CC)S(=O)(=O)c1ccc(N(C)Cc2cccc(OC)c2OC)nc1` as the compound, how does the AC50 [7] read?
The AC50 was 57.1 µM (active).

For `Cc1nnsc1[S+]([O-])c1ccc(Br)cc1` (stereo not given), which EC50 [5] is on record?
Its EC50 is 6.67 µM (active).

What about the EC50 (H4) of the same compound?
Its EC50 is > 120 µM (not active).

What about the EC50 [6] of the same compound?
The EC50 was 21.9 µM (active).

With `CC12CC3(C)CC(C)(C1)CC(C(=O)NC(=S)NC(C)(C)C)(C2)C3` as the compound, how does the IC50 [1] read?
The IC50 was > 66 µM (inactive).

And the IC50 [2]?
Its IC50 is > 66 µM (inactive).

For `Cc1ccc(CC(=O)Nc2ccncc2)cc1`, which AC50 [8] is on record?
Its AC50 is 15.2 µM (active).

What about the AC50 [9] of the same compound?
Its AC50 is 2.39 µM (active).

What about the AC50 [7] of the same compound?
The AC50 was 3.99 µM (active).

Which results are given for `CCOC(=O)C1CCCN(C(=O)c2ccc3oc(CCc4ccccc4)nc3c2)C1` (stereo not given)?
EC50 [10]: > 150 µM (inactive); EC50 (cells [11]): > 350 µM (not active); EC50 (cells [12]): > 350 µM (not active); EC50 [13]: > 38 µM (not active)

Reference: ChEMBL document CHEMBL1201862, “PubChem BioAssay data set” (2004)
